Data as given in ChEMBL document CHEMBL1126502, “Enhancement of binding of quaternary ammonium derivatives of chlorpromaxine to dopamine D-2 receptors by the addition of a H-bonding group” (Bioorg Med Chem Lett, 1993).

What follows are compounds tested against D(2) dopamine receptor (Rattus norvegicus, UniProt P61169) (assay: Tested for Competitive binding inhibition of [3H]spiperone to Dopamine receptor D2 in rat striatal membrane.).
Format: cell membranes

Sequence of D(2) dopamine receptor (P61169 whole entry): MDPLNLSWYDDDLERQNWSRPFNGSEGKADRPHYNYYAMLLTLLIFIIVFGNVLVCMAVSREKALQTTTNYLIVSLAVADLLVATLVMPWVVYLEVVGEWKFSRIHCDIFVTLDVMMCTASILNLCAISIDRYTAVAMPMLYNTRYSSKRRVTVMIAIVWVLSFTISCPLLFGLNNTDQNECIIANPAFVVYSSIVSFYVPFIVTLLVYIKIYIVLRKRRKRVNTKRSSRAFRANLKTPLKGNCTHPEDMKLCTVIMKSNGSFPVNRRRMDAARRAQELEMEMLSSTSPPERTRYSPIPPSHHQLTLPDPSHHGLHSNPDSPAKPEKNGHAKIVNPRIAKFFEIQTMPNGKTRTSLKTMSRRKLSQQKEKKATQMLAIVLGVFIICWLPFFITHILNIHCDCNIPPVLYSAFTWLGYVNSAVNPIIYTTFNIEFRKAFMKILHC

Ki [µM]	SMILES
4.88	C[N+](C)(C)NCCN1c2ccccc2Sc2ccc(Cl)cc21
0.82	C[N+](C)(N)CCCN1c2ccccc2Sc2ccc(Cl)cc21
8.57	C[N+](C)(C)CCCN1c2ccccc2Sc2ccc(Cl)cc21
